Results: patent publication US9078871B2, “Estrogen receptor modulators and uses thereof” (SERAGON PHARMACEUTICALS, INC., priority 2010, dated 2015)
pIC50: −log10 of the molar value.

Tests used:
MCF-7 cells = assay: Breast Cancer Cell Viability Assay (MCF7 Viability Assay); assay type: cell-based; conditions: 5 days' compound exposure, CellTiter-Glo; for pIC50: Homo sapiens, MCF7, 120 h
Experimental: MCF-7 cells were adjusted to a concentration of 20,000 cells per mL in RPMI containing 10% FBS and 20 mM HEPES. 16 microliters of the cell suspension (320 cells) was added to each well of a 384 well plate, and the cells were incubated overnight to allow the cells to adhere. The following day an eleven point, serial semilog dilution of each compound was added to the cells in 16 μL at a final concentration ranging from 0.3-0.000003 μM. After 5 days' compound exposure, 16 μL of CellTiter-GLo (Promega, Madison Wis.) was added to the cells the relative luminescence units (RLUs) of each well was determined. CellTiter-Glo added to 32 μL of medium without cells was used to obtain a background value. The Percent viability of each sample was determined as follows: (RLU sample-RLU background/RLU untreated cells-RLU background)×100=% viability.

ER-α = target: T1, ER-α (Homo sapiens, UniProt P03372); assay: ER-α in Cell Western Assay (SP1); assay type: cell-based; conditions: MCF-7 cells, SP1 rabbit monoclonal Ab, 4 or 24 hr post compound addition, read-out: ER In-Cell Western Assay (SP1); for Emax: MCF7, Max Response; for DC50: IC50
T1 construct: endogenous in cells; host or cells: MCF-7
T1 sequence (P03372 1-595): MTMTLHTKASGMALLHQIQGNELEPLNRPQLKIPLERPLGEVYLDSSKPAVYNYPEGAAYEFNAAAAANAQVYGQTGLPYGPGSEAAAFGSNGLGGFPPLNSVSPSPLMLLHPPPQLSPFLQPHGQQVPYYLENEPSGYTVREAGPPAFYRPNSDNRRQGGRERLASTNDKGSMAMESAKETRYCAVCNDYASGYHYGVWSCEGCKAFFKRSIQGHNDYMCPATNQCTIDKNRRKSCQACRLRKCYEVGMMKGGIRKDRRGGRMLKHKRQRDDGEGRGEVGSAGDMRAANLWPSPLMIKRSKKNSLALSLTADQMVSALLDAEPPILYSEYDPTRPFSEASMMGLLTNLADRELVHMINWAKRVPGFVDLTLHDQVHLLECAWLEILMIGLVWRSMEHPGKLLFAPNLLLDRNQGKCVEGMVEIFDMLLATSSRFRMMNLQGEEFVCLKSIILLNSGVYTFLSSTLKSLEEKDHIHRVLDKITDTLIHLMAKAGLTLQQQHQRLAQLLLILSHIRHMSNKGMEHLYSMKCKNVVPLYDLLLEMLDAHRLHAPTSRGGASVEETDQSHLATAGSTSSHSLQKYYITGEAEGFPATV
Experimental: MCF-7 cells were adjusted to a concentration of 200,000 cells per mL in RPMI containing 10% charcoal-stripped FBS and 20 mM HEPES. 16 microliters of the cell suspension (3200 cells) was added to each well of a poly-D-lysine 384 well plate, and the cells were incubated overnight to allow the cells to adhere. The following day an eleven point, serial semilog dilution of each compound was added to the cells in 16 μL at a final concentration ranging from 0.3-0.000003 μM. At 4 or 24 hr post compound addition, the cells were fixed (10% formalin in PBS) for 20 minutes. Cells were permeabalized in PBS 0.1% Triton and blocked with LICOR blocking buffer (50 μl/well, 90′). The wells were then incubated overnight at 4° C. with SP1 rabbit monoclonal Ab (Thermo Scientific) diluted 1:1000 in LICOR blocking buffer/0.1% Tween-20. Wells which were treated with blocking buffer with Tween but no antibody were used as a background control. Wells were washed with 0.1% Tween-20/PBS and then incubated in goat anti-rabbit IRDye™ 800CW (LICOR Inc.; 1:1000) and DRAQ5 DNA dye (1:2000 for 2 mM stock) diluted in LICOR blocking buffer containing 0.1% Tween-20 and 0.01% SDS for 60 minutes. Cells were washed (50 μl/well, 5′ each) in 0.1% Tween-20/PBS. Plates were scanned on a LICOR Odyssey infrared imaging system. Integrated intensities in the 800 nm channel and 700 nm channel were measured to determine levels of ER and DNA respectively. Percent ER levels were determined as follows: (Integrated intensity 800 nm sample/integrated intensity 700 nm sample)/(Integrated intensity 800 nm untreated cells/integrated intensity 700 nm untreated cells)×100=% ER levels.

| Structure (SMILES) | MCF7 Viability Assay Max Response (MCF-7 cells) | pIC50 (MCF-7 cells) | Emax (ER-α) [%] | DC50 (ER-α) [nM] |
| --- | --- | --- | --- | --- |
| CC1=C(c2ccc(F)cc2)[C@H](c2ccc(OC[C@H](C)N3CC[C@@H](C)C3)cc2)Oc2ccc(O)cc21 (single isomer, unassigned) [Example 30a] | ++ (++ = a single % value ≧50%) | ≥ 9.00 | 60 to 85 | ≤ 1 |
| CC1=C(c2ccc(F)cc2)[C@@H](c2ccc(OC[C@H](C)N3CC[C@@H](C)C3)cc2)Oc2ccc(O)cc21 (single isomer, unassigned) [Example 30b] | ++ (++ = a single % value ≧50%) | < 9.00 | 60 to 85 | > 1 |
| CC1=C(c2cccc(O)c2C)C(c2ccc(OC[C@H](C)N3CC[C@@H](C)C3)cc2)Oc2ccc(O)cc21 (stereo partly drawn) [Example 40, 3-(3-Hydroxy-2-methylphenyl)-4-methyl-2-(4-((S)-2-((R)-3-methylpyrrolidin-1-yl)propoxy)phenyl)-2H-chromen-6-ol] | ++ (++ = a single % value ≧50%) | ≥ 9.00 | 60 to 85 | ≤ 1 |
| CC1=C(c2ccc(O)cc2C)C(c2ccc(OC[C@H](C)N3CC[C@@H](C)C3)cc2)Oc2ccc(O)cc21 (stereo partly drawn) [Example 41, 3-(4-Hydroxy-2-methylphenyl)-4-methyl-2-(4-((S)-2-((R)-3-methylpyrrolidin-1-yl)propoxy)phenyl)-2H-chromen-6-ol] | ++ (++ = a single % value ≧50%) | ≥ 9.00 | 60 to 85 | ≤ 1 |
| CC1=C(c2ccc(O)c(C)c2)C(c2ccc(OC[C@H](C)N3CC[C@@H](C)C3)cc2)Oc2ccc(O)cc21 (stereo partly drawn) [Example 42, 3-(4-Hydroxy-3-methylphenyl)-4-methyl-2-(4-((S)-2-((R)-3-methylpyrrolidin-1-yl)propoxy)phenyl)-2H-chromen-6-ol] | ++ (++ = a single % value ≧50%) | ≥ 9.00 | ≥ 85 | ≤ 1 |
| CC1=C(c2cc(O)cc(F)c2)C(c2ccc(OC[C@H](C)N3CC[C@@H](C)C3)cc2)Oc2ccc(O)cc21 (stereo partly drawn) [Example 43, 3-(3-Fluoro-5-hydroxyphenyl)-4-methyl-2-(4-((S)-2-((R)-3-methylpyrrolidin-1-yl)propoxy)phenyl)-2H-chromen-6-ol] | ++ (++ = a single % value ≧50%) | ≥ 9.00 | ≥ 85 | ≤ 1 |
| CC1=C(c2ccc(Cl)cc2)C(c2ccc(OC[C@H](C)N3CC[C@@H](C)C3)cc2)Oc2ccc(O)cc21 (stereo partly drawn) [Example 44, 3-(4-Chlorophenyl)-4-methyl-2-(4-((S)-2-((R)-3-methylpyrrolidin-1-yl)propoxy)phenyl)-2H-chromen-6-ol] | ++ (++ = a single % value ≧50%) | < 9.00 | 60 to 85 | > 1 |
| CC1=C(c2ccc(O)cc2F)C(c2ccc(OC[C@H](C)N3CC[C@@H](C)C3)cc2)Oc2ccc(O)cc21 (stereo partly drawn) [Example 45, 3-(2-Fluoro-4-hydroxyphenyl)-4-methyl-2-(4-((S)-2-((R)-3-methylpyrrolidin-1-yl)propoxy)phenyl)-2H-chromen-6-ol] | ++ (++ = a single % value ≧50%) | ≥ 9.00 | ≥ 85 | ≤ 1 |
| CC1=C(c2ccc(F)c(F)c2)C(c2ccc(OC[C@H](C)N3CC[C@@H](C)C3)cc2)Oc2ccc(O)cc21 (stereo partly drawn) [Example 46, 3-(3,4-Difluorophenyl)-4-methyl-2-(4-((S)-2-((R)-3-methylpyrrolidin-1-yl)propoxy)phenyl)-2H-chromen-6-ol] | ++ (++ = a single % value ≧50%) | < 9.00 | 60 to 85 | > 1 |
| CC1=C(c2cc(F)c(O)c(F)c2)C(c2ccc(OC[C@H](C)N3CC[C@@H](C)C3)cc2)Oc2ccc(O)cc21 (stereo partly drawn) [Example 47, 3-(3,5-Difluoro-4-hydroxyphenyl)-4-methyl-2-(4-((S)-2-((R)-3-methylpyrrolidin-1-yl)propoxy)phenyl)-2H-chromen-6-ol] | ++ (++ = a single % value ≧50%) | ≥ 9.00 | ≥ 85 | ≤ 1 |
| CC1=C(c2ccc(F)c(O)c2F)C(c2ccc(OC[C@H](C)N3CC[C@@H](C)C3)cc2)Oc2ccc(O)cc21 (stereo partly drawn) [Example 48, 3-(2,4-Difluoro-3-hydroxyphenyl)-4-methyl-2-(4-((S)-2-((R)-3-methylpyrrolidin-1-yl)propoxy)phenyl)-2H-chromen-6-ol] | ++ (++ = a single % value ≧50%) | < 9.00 | ≥ 85 | ≤ 1 |
| CC1=C(c2cc(O)c(F)c(F)c2)C(c2ccc(OC[C@H](C)N3CC[C@@H](C)C3)cc2)Oc2ccc(O)cc21 (stereo partly drawn) [Example 49, 3-(3,4-Difluoro-5-hydroxyphenyl)-4-methyl-2-(4-((S)-2-((R)-3-methylpyrrolidin-1-yl)propoxy)phenyl)-2H-chromen-6-ol] | ++ (++ = a single % value ≧50%) | ≥ 9.00 | ≥ 85 | ≤ 1 |
| CC1=C(c2ccc(F)cc2Cl)C(c2ccc(OC[C@H](C)N3CC[C@@H](C)C3)cc2)Oc2ccc(O)cc21 (stereo partly drawn) [Example 50, 3-(2-Chloro-4-fluorophenyl)-4-methyl-2-(4-((S)-2-((R)-3-methylpyrrolidin-1-yl)propoxy)phenyl)-2H-chromen-6-ol] | ++ (++ = a single % value ≧50%) | ≥ 9.00 | 60 to 85 | ≤ 1 |
| CC1=C(c2cccc(O)c2)C(c2ccc(OC[C@H](C)n3cnc(C)c3)cc2)Oc2ccc(O)cc21 (stereo partly drawn) [Example 51, 3-(3-Hydroxyphenyl)-4-methyl-2-(4-((S)-2-(4-methyl-1H-imidazol-1-yl)propoxy)phenyl)-2H-chromen-6-ol] | ++ (++ = a single % value ≧50%) | ≥ 9.00 | 60 to 85 | ≤ 1 |
| CC1=C(c2ccc(F)cc2F)C(c2ccc(OC[C@H](C)N3CC[C@@H](C)C3)cc2)Oc2ccc(O)cc21 (stereo partly drawn) [Example 52, 3-(2,4-Difluorophenyl)-4-methyl-2-(4-((S)-2-((R)-3-methylpyrrolidin-1-yl)propoxy)phenyl)-2H-chromen-6-ol] | ++ (++ = a single % value ≧50%) | ≥ 9.00 | 60 to 85 | ≤ 1 |
| CC1=C(c2cccc(O)c2F)C(c2ccc(OC[C@H](C)N3CC[C@@H](C)C3)cc2)Oc2ccc(O)cc21 (stereo partly drawn) [Example 60, 3-(2-Fluoro-3-hydroxyphenyl)-4-methyl-2-(4-((S)-2-((R)-3-methylpyrrolidin-1-yl)propoxy)phenyl)-2H-chromen-6-ol] | ++ (++ = a single % value ≧50%) | ≥ 9.00 | ≥ 85 | ≤ 1 |
| CC1=C(c2cccc(O)c2)C(c2ccc(OC[C@H](C)N3CC[C@@H](C)C3)cc2)Oc2ccc(O)c(F)c21 (stereo partly drawn) [Example 61, 5-Fluoro-3-(3-hydroxyphenyl)-4-methyl-2-(4-((S)-2-((R)-3-methylpyrrolidin-1-yl)propoxy)phenyl)-2H-chromen-6-ol] | ++ (++ = a single % value ≧50%) | ≥ 9.00 | ≥ 85 | ≤ 1 |
